Test results reported in paper PMC4607679, “Intestinal Absorption of Ergostane and Lanostane Triterpenoids from Antrodia cinnamomea Using Caco-2 Cell Monolayer Model” (Natural Products and Bioprospecting, 2015).
Entries after “also recorded” stand apart in the source; their conditions may differ. Read-outs that look alike come from different tables or passages of the source. Each block holds one molecule with its values, some of them ahead of it.

Key:
[1] = Solubility (stated in words); details: both in the extract and single forms (13 and 14)
Caco-2 cell monolayer [2] = test: Bidirectional transport across the Caco-2 cell monolayer (LC/MS/MS); details: for Efflux ratio P BA/P AB: as single compounds; for Efflux ratio P BA/P AB / permeability through the Caco-2 cell layer: 10 µM; for decrease of PBA in extract compared to the single form: extract versus single compound; for P app P BA: BL to AP; for permeability through the Caco-2 cell layer: pure compounds
Caco-2 cell monolayer [3] = details: human
in vitro = details: human; for Papp A→B at 180 min, 25 µg/mL (extract) / Papp B→A at 180 min, 25 µg/mL (extract): Caco-2; for efflux ratio at 180 min, 25 µg/mL: Caco-2, Efflux ratio P BA/P AB
[4] = Bidirectional transport across the Caco-2 cell monolayer (LC/MS/MS); details: human; for efflux ratio at 180 min, 25 µg/mL / efflux ratio at 180 min, 10 µM: Caco-2, Efflux ratio P BA/P AB; for efflux ratio at 180 min, 25 µg/mL: in A. cinnamomea extract (25 µg/mL); for efflux ratio at 180 min, 10 µM: as single compounds
[5] = cited from earlier work
Caco-2 cultures = test: MTS assay on Caco-2 cultures; type: cell-based, human; details: 10 µM
Protocol: The pure compounds 5, 6, 10, 13 and 14 were added into the Caco-2 cultures at a final concentration of 10 µM.

[6] = Leakage marker sodium fluorescein transport, AP to BL, Caco-2 monolayer integrity; type: in vitro ADME; details: human
Protocol: The integrity of cell monolayers was also assessed by the transport of the leakage marker sodium fluorescein. On day 21, the Caco-2 monolayers were rinsed twice with pre-warmed HBSS and were then incubated with the same solution at 37 °C for 30 min, on a shaker at 50 rpm. The fluorescein was pre-dissolved in 1 mM NaOH/H2O (1:10, v/v), and then diluted to 1 mM with an appropriate volume of HBSS. The sodium fluorescein and blank HBSS were added to the AP (0.5 mL) and BL side (1.5 mL), respectively. At 30, 60, 90, and 120 min, each 0.3 mL of the solution from BL side was collected, and replaced with an equal volume of HBSS. The sodium fluorescein intensity was determined with a Hitachi F-4500 fluorometer (excitation wavelength 490 nm, emission 525 nm).

[7] = in A. cinnamomea extract (25 µg/mL)

SMILES: C=C(CC[C@@H](C(=O)O)[C@H]1C[C@H](O)[C@@]2(C)C3=CC[C@H]4C(C)(C)[C@@H](O)CC[C@]4(C)C3=CC[C@]12C)C(C)C [compound 8, dehydrosulphurenic acid]
- solubility [1]: very low
- permeability (Caco-2 cell monolayer [2]; both in the extract and single forms (13 and 14)): very low
- permeability (Caco-2 cell monolayer [2]; in A. cinnamomea extract): poor permeability

SMILES: CC(C)=CCC[C@@H](C(=O)O)[C@H]1C[C@H](O)[C@@]2(C)C3=CC[C@H]4C(C)(C)[C@H](O)CC[C@]4(C)C3=CC[C@]12C [compound 7, 3β,15α-dihydroxylanosta-7,9(11),24-triene-21-oic acid]
- transport rate (Caco-2 cell monolayer [3]; Caco-2, 180 min, 25 µg/mL): 38.8%
- Papp A→B at 180 min, 25 µg/mL (extract) (in vitro): 37.4 ± 4.3 ×10⁻⁶ cm/s
- Papp B→A at 180 min, 25 µg/mL (extract) (in vitro): 35.7 ± 3.8 ×10⁻⁶ cm/s
- efflux ratio at 180 min, 25 µg/mL (in vitro): 0.96

- Papp A→B at 30 min ([4]; Caco-2): 35.1 ± 10.6 ×10⁻⁶ cm/s
- Papp A→B at 60 min ([4]; Caco-2): 37.6 ± 4.5 ×10⁻⁶ cm/s
- Papp A→B at 90 min ([4]; Caco-2): 34.3 ± 4.6 ×10⁻⁶ cm/s
- Papp A→B at 120 min ([4]; Caco-2): 38.1 ± 3.4 ×10⁻⁶ cm/s
- PAB value of marker compound (Caco-2 cell monolayer [2]; marker compound, AP to BL (Table S5)): 3.81 ± 0.34 × 10^−5 cm/s
SMILES: CC(C)NCC(O)COc1cccc2ccccc12 (centres unmarked) [propranolol, reference compound]

SMILES: C=C(CC[C@@H](C)[C@H]1CC[C@H]2C3=C(C(=O)C[C@]12C)[C@@]1(C)CCC(=O)[C@@H](C)[C@@H]1CC3=O)[C@H](C)C(=O)O [compound 9, 25S-antcin B]
- plasma exposure ([5]; rats, after A. cinnamomea): much lower plasma concentrations
- Papp A→B at 180 min, 25 µg/mL (extract) ([4]; Caco-2): 26.5 ± 5.3 ×10⁻⁶ cm/s
- Papp B→A at 180 min, 25 µg/mL (extract) ([4]; Caco-2): 27.6 ± 2.7 ×10⁻⁶ cm/s
- efflux ratio at 180 min, 25 µg/mL [4]: 1.04

SMILES: C=C(CC[C@@H](C)[C@H]1CC[C@H]2C3=C(C(=O)C[C@]12C)[C@@]1(C)CCC(=O)[C@@H](C)[C@@H]1C[C@@H]3O)[C@H](C)C(=O)O [compound 3, 25S-antcin C]
- plasma exposure ([5]; rats, after A. cinnamomea): much lower plasma concentrations
- Papp A→B at 180 min, 25 µg/mL (extract) ([4]; Caco-2): 68.2 ± 5.9 ×10⁻⁶ cm/s
- Papp B→A at 180 min, 25 µg/mL (extract) ([4]; Caco-2): 49.9 ± 2.9 ×10⁻⁶ cm/s
- efflux ratio at 180 min, 25 µg/mL [4]: 0.73

SMILES: C=C(CC[C@@H](C)[C@H]1CC[C@H]2C3=C(C(=O)C[C@]12C)[C@@]1(C)CCC(=O)[C@@H](C)[C@@H]1CC3)C(C)C(=O)O (mixture of isomers) [compound 11, (R/S)-antcin A]
- Papp A→B at 180 min, 25 µg/mL (extract) (in vitro): 79.2 ± 4.2 ×10⁻⁶ cm/s
- Papp B→A at 180 min, 25 µg/mL (extract) (in vitro): 47.9 ± 2.3 ×10⁻⁶ cm/s
- efflux ratio at 180 min, 25 µg/mL (in vitro): 0.6

SMILES: C=C(CC[C@@H](C)[C@H]1CC[C@H]2C3=C(C(=O)C[C@]12C)[C@@]1(C)CC[C@@H](O)[C@](C)(O)[C@@H]1C[C@@H]3O)[C@H](C)C(=O)O [compound 1, 25S-antcin K]
- Papp A→B at 180 min, 25 µg/mL (extract) (in vitro): 78 ± 8.6 ×10⁻⁶ cm/s
- Papp B→A at 180 min, 25 µg/mL (extract) (in vitro): 53.2 ± 3.1 ×10⁻⁶ cm/s
- efflux ratio at 180 min, 25 µg/mL (in vitro): 0.68
- plasma exposure ([5]; rat, in vivo): major plasma-exposed components

SMILES: C=C(CC[C@@H](C)[C@H]1CC[C@H]2C3=C(C(=O)C[C@]12C)[C@@]1(C)CCC(=O)[C@@H](C)[C@@H]1CC3=O)[C@@H](C)C(=O)O [compound 10, 25R-antcin B]
- toxicity to the cells (MTS assay) (Caco-2 cultures): non-toxic
- plasma exposure ([5]; rats, after A. cinnamomea): much lower plasma concentrations
- Papp A→B at 180 min, 10 µM ([4]; Caco-2): 28.3 ± 4.3 ×10⁻⁶ cm/s
- Papp A→B at 180 min, 25 µg/mL (extract) ([4]; Caco-2): 41.1 ± 9.2 ×10⁻⁶ cm/s
- Papp B→A at 180 min, 10 µM ([4]; Caco-2): 58.5 ± 5.8 ×10⁻⁶ cm/s
- Papp B→A at 180 min, 25 µg/mL (extract) ([4]; Caco-2): 38.6 ± 3.2 ×10⁻⁶ cm/s
- efflux ratio at 180 min, 10 µM [4]: > 2
- efflux ratio at 180 min, 25 µg/mL [4]: 0.94
- Efflux ratio P BA/P AB (Caco-2 cell monolayer [2]): 2.07
- decrease of PBA in extract compared to the single form (Caco-2 cell monolayer [2]): 50–60%
- P app P BA (Caco-2 cell monolayer [2]; [7]): 3.0–3.8 ×10^−5 cm/s
- permeability through the Caco-2 cell layer (Caco-2 cell monolayer [2]): could readily pass through; also recorded: high permeability
- metabolites detected in the AP side (Caco-2 cell monolayer [2]; single compound 10 µM, 120 min (Fig. S2)): two hydrogenated metabolites

SMILES: C=C(CC[C@@H](C)[C@H]1CC[C@H]2C3=C(C(=O)C[C@]12C)[C@@]1(C)CCC(=O)[C@@H](C)[C@@H]1C[C@@H]3O)[C@@H](C)C(=O)O [compound 4, 25R-antcin C]
- plasma exposure ([5]; rats, after A. cinnamomea): much lower plasma concentrations
- Papp A→B at 180 min, 25 µg/mL (extract) ([4]; Caco-2): 74.1 ± 19 ×10⁻⁶ cm/s
- Papp B→A at 180 min, 25 µg/mL (extract) ([4]; Caco-2): 51.3 ± 2.7 ×10⁻⁶ cm/s
- efflux ratio at 180 min, 25 µg/mL [4]: 0.69

- Papp A→B at 1 mM ([6]; 1 mM, day 21 monolayer, read-out: Papp value AP to BL side): < 1 ×10⁻⁶ cm/s
- Papp A→B at 30 min, 1 mM ([6]; 30 min): 0.798 ± 0.199 ×10⁻⁶ cm/s
- Papp A→B at 60 min, 1 mM ([6]; 60 min): 0.771 ± 0.144 ×10⁻⁶ cm/s
- Papp A→B at 90 min, 1 mM ([6]; 90 min): 0.765 ± 0.14 ×10⁻⁶ cm/s
- Papp A→B at 120 min, 1 mM ([6]; 120 min): 0.708 ± 0.298 ×10⁻⁶ cm/s
SMILES: O=C1OC2(c3ccc(O)cc3Oc3cc(O)ccc32)c2ccccc21 [sodium fluorescein]

SMILES: C=C(CC[C@@H](C)[C@H]1CC[C@H]2C3=C(C(=O)C[C@]12C)[C@@]1(C)CC[C@@H](O)[C@](C)(O)[C@@H]1C[C@@H]3O)[C@@H](C)C(=O)O [compound 2, 25R-antcin K]
- transport rate (Caco-2 cell monolayer [3]; Caco-2, 25 µg/mL): 112%
- Papp A→B at 180 min, 25 µg/mL (extract) (in vitro): 57.4 ± 2.7 ×10⁻⁶ cm/s
- Papp B→A at 180 min, 25 µg/mL (extract) (in vitro): 44.8 ± 3 ×10⁻⁶ cm/s
- efflux ratio at 180 min, 25 µg/mL (in vitro): 0.78
- plasma exposure ([5]; rat, in vivo): major plasma-exposed components

SMILES: C=C(CC[C@@H](C)[C@H]1CC[C@H]2C3=C(C(=O)[C@H](O)[C@]12C)[C@@]1(C)CC[C@@H](O)[C@@H](C)[C@@H]1CC3=O)[C@H](C)C(=O)O [compound 6, 25S-antcin H]
- toxicity to the cells (MTS assay) (Caco-2 cultures): non-toxic
- plasma exposure ([5]; rats, after A. cinnamomea): major plasma-exposed components
- Papp A→B at 180 min, 10 µM ([4]; Caco-2): 31.4 ± 5.6 ×10⁻⁶ cm/s
- Papp B→A at 180 min, 10 µM ([4]; Caco-2): 92 ± 13.4 ×10⁻⁶ cm/s
- Papp B→A at 180 min, 25 µg/mL (extract) ([4]; Caco-2): 30.5 ± 3.8 ×10⁻⁶ cm/s
- efflux ratio at 180 min, 10 µM [4]: > 2
- efflux ratio at 180 min, 25 µg/mL [4]: 0.99
- decrease of PBA in extract compared to the single form (Caco-2 cell monolayer [2]): 50–60%
- P app P AB (Caco-2 cell monolayer [2]; in A. cinnamomea extract (25 µg/mL), AP to BL): 3.18 ± 0.34 ×10^−5 cm/s
- P app P BA (Caco-2 cell monolayer [2]; [7]): 3.0–3.8 ×10^−5 cm/s
- permeability through the Caco-2 cell layer (Caco-2 cell monolayer [2]): could readily pass through; also recorded: high permeability

SMILES: C=C(CC[C@@H](C)[C@H]1CC[C@H]2C3=C(C(=O)[C@H](O)[C@]12C)[C@@]1(C)CC[C@@H](O)[C@@H](C)[C@@H]1CC3=O)[C@@H](C)C(=O)O [compound 5, 25R-antcin H]
- toxicity to the cells (MTS assay) (Caco-2 cultures): non-toxic
- plasma exposure ([5]; rats, after A. cinnamomea): major plasma-exposed components
- Papp A→B at 180 min, 10 µM ([4]; Caco-2): 37.2 ± 4.4 ×10⁻⁶ cm/s
- Papp A→B at 180 min, 25 µg/mL (extract) ([4]; Caco-2): 39.5 ± 6.4 ×10⁻⁶ cm/s
- Papp B→A at 180 min, 10 µM ([4]; Caco-2): 84.1 ± 13.5 ×10⁻⁶ cm/s
- Papp B→A at 180 min, 25 µg/mL (extract) ([4]; Caco-2): 34.7 ± 3.6 ×10⁻⁶ cm/s
- efflux ratio at 180 min, 10 µM [4]: > 2
- efflux ratio at 180 min, 25 µg/mL [4]: 0.88
- Efflux ratio P BA/P AB (Caco-2 cell monolayer [2]): 2.26
- decrease of PBA in extract compared to the single form (Caco-2 cell monolayer [2]): 50–60%
- P app P BA (Caco-2 cell monolayer [2]; [7]): 3.0–3.8 ×10^−5 cm/s
- permeability through the Caco-2 cell layer (Caco-2 cell monolayer [2]): could readily pass through; also recorded: high permeability
